Measurements as given in article PMC8431370, “The Second-Generation PIM Kinase Inhibitor TP-3654 Resensitizes ABCG2-Overexpressing Multidrug-Resistant Cancer Cells to Cytotoxic Anticancer Drugs” (International Journal of Molecular Sciences, 2021).

Key:
[1] = target: T1, ATP-binding cassette (ABC) subfamily G member 2 (ABCG2) (Homo sapiens, UniProt Q9UNQ0); experiment: flow cytometry inhibition of pheophorbide A efflux in ABCG2-transfected HEK293 cells (also S1-M1-80 and H460-MX20); format: cell-based
T1 construct: ABCG2-transfected R482-HEK293 cells
T1 sequence (Q9UNQ0 1-655): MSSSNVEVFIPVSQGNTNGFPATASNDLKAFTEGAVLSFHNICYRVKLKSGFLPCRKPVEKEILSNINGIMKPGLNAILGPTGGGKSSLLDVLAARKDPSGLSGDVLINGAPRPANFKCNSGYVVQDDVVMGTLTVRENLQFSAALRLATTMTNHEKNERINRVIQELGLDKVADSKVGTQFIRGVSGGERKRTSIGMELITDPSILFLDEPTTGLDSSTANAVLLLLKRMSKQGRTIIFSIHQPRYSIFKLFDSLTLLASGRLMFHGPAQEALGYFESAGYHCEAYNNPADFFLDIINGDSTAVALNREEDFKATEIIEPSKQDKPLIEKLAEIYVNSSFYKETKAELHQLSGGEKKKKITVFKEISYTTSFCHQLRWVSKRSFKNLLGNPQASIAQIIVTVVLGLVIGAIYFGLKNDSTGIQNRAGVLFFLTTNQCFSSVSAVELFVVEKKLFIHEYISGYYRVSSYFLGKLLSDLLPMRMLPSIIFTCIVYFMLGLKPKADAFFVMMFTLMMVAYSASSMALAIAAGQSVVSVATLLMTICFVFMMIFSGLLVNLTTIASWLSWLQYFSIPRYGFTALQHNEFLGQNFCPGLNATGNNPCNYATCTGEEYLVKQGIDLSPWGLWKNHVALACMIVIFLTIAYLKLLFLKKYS
Text: flow cytometry inhibition of pheophorbide A efflux in ABCG2-transfected HEK293 cells (also S1-M1-80 and H460-MX20) on ATP-binding cassette (ABC) subfamily G member 2 (ABCG2) | TP-3654 inhibited ABCG2-mediated efflux of PhA in ABCG2-transfected R482-HEK293 cells

[2] = target: T1, ATP-binding cassette (ABC) subfamily G member 2 (ABCG2); experiment: flow cytometry of ABCG2-mediated efflux in parental and ABCG2-transfected HEK293 cells; format: cell-based

Row | SMILES | IC50 [1] [nM] | flow cytometry of ABCG2-mediated efflux in parental and ABCG2-transfected HEK293 [2]
1 | CC(C)(O)[C@H]1CC[C@H](Nc2ccc3ncc(-c4cccc(C(F)(F)F)c4)n3n2)CC1 [TP-3654] | ~140 | 
2 | C=Cc1c(C)c2cc3nc(c4c5[nH]c(cc6nc(cc1[nH]2)C(C)=C6CC)c(C)c5C(=O)[C@@H]4C(=O)OC)[C@@H](CCC(=O)O)[C@@H]3C [pheophorbide A] |  | Flow cytometry analysis of PhA accumulation in parental HEK293 cells and ABCG2-transfected R482-HEK293 cells
